Assay results from patent US11174245B2, “Benzimidazole compounds and derivatives as EGFR inhibitors” (Boehringer Ingelheim International GmbH, priority 2018, dated 2021).
Read-outs that look alike come from different tables or passages of the source.

What was measured:
[1] = target: EGFR (d746-750 T790M C797S) (Homo sapiens (Human), UniProt P00533, C797S/DEL746-750/T790M); assay: Biochemical EGFR inhibition assay (TR-FRET, poly-GT substrate), EGFR d746-750 T790M C797S
Protocol: (§1) Biochemical EGFR Inhibition Assays
(§2) Initially, the inhibitory effect of compounds according to the invention is measured in biochemical assays which measure the phosphorylation activity of EGFR enzyme forms on poly-GT substrate in the presence of different concentrations of ATP (5 μM and 100 μM final assay concentration).
(§3) The following enzyme forms of EGFR are representative examples that can be used in these assays at the given concentrations:
(§4) For the chosen highest assay concentration of 100 μM, 150 nL of compound solution is transferred from a 10 mM DMSO compound stock solution. A series of eleven fivefold dilutions per compound is transferred to the assay plate, compound dilutions are tested in duplicates. DMSO is added as backfill to a total volume of 150 nL. The assay runs on a fully automated robotic system.
(§5) These biochemical EGFR enzyme form compound dose-response assays quantify the kinase activity via phosphorylation of a tagged poly-GT substrate. The results of the assay are provided as IC50 values.

[2] = target: EGFR (mutated) 695-1022, T790M, C797S, L858R (Homo sapiens (Human), UniProt P00533, C797S/L858R/T790M); assay: Biochemical EGFR inhibition assay (TR-FRET, poly-GT substrate), EGFR T790M C797S L858R
Protocol: as §1, §2, §3, §4, §5

[3] = target: EGFR wt (Homo sapiens (Human), UniProt P00533); assay: Biochemical EGFR inhibition assay (TR-FRET, poly-GT substrate), EGFR wt
Protocol: as §1, §2, §3, §4, §5

[4] = target: EGFR del19 T790M C797S protein in Ba/F3 cells (Homo sapiens, UniProt P00533, C797S/DEL746-750/T790M); assay: pEGFR assay (AlphaScreen Surefire, EGFR Tyr1068 phosphorylation); type: cell-based
In short: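 Transduced Ba/F3 cells, puromycin-selected and grown IL-3 independent, were treated with compound at 60.000 cells/well for 4 h at 37° C. Lysis followed for 20 min at room temperature, and Tyr1068 phospho-EGFR in lysate was detected after 2 h dark incubation. Results are IC50 values.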

[5] = read-out: LR_TM_CS (100 μM ATP) IC50, 100 μM ATP
[6] = read-out: wt (100 μM ATP) IC50, 100 μM ATP
[7] = read-out: LR_TM_CS (5 μM ATP) IC50, 5 μM ATP
[8] = read-out: wt (5 μM ATP) IC50, 5 μM ATP

Sequence of EGFR del19 T790M C797S protein in Ba/F3 cells (P00533 with tags, fused parts or gaps C797S/DEL746-750/T790M limits assumed): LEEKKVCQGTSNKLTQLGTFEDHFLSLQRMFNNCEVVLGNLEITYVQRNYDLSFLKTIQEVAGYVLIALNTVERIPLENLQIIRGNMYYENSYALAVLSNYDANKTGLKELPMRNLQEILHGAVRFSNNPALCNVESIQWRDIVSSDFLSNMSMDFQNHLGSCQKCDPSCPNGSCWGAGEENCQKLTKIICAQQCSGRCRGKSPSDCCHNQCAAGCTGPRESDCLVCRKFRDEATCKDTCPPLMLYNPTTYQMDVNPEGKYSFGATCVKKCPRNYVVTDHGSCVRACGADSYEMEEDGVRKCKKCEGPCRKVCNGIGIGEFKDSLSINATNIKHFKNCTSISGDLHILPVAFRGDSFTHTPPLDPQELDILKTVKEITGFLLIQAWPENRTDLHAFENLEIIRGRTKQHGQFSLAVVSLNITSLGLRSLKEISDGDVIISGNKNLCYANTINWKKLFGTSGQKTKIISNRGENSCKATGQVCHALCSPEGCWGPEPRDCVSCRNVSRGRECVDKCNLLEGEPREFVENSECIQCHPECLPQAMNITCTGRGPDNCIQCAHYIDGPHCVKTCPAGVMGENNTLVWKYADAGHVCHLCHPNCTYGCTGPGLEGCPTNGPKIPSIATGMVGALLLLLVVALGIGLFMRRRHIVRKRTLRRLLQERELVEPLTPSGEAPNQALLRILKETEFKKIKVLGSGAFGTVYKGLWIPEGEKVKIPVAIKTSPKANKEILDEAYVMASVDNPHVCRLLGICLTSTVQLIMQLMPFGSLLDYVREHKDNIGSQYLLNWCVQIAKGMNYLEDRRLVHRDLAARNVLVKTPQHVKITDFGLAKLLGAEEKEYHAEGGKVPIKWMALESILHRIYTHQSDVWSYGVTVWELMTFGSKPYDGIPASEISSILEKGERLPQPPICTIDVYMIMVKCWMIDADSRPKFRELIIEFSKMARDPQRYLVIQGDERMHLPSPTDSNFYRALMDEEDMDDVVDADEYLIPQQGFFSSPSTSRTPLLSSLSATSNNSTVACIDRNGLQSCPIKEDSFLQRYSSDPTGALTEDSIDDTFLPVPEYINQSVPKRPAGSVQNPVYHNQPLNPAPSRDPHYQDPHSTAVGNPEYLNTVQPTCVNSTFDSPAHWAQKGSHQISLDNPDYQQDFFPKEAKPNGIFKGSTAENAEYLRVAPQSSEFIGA
Sequence of EGFR (mutated) 695-1022, T790M, C797S, L858R (P00533 695-1022 T790M/C797S/L858R): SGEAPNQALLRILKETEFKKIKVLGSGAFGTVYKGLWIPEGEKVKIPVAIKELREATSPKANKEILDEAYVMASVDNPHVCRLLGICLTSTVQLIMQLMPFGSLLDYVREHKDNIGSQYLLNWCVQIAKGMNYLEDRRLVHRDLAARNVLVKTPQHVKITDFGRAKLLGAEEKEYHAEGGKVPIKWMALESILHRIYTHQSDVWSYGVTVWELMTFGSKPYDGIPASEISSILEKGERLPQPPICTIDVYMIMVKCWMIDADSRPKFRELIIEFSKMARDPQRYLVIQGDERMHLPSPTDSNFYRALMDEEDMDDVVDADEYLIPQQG
Sequence of EGFR wt (P00533 25-1210): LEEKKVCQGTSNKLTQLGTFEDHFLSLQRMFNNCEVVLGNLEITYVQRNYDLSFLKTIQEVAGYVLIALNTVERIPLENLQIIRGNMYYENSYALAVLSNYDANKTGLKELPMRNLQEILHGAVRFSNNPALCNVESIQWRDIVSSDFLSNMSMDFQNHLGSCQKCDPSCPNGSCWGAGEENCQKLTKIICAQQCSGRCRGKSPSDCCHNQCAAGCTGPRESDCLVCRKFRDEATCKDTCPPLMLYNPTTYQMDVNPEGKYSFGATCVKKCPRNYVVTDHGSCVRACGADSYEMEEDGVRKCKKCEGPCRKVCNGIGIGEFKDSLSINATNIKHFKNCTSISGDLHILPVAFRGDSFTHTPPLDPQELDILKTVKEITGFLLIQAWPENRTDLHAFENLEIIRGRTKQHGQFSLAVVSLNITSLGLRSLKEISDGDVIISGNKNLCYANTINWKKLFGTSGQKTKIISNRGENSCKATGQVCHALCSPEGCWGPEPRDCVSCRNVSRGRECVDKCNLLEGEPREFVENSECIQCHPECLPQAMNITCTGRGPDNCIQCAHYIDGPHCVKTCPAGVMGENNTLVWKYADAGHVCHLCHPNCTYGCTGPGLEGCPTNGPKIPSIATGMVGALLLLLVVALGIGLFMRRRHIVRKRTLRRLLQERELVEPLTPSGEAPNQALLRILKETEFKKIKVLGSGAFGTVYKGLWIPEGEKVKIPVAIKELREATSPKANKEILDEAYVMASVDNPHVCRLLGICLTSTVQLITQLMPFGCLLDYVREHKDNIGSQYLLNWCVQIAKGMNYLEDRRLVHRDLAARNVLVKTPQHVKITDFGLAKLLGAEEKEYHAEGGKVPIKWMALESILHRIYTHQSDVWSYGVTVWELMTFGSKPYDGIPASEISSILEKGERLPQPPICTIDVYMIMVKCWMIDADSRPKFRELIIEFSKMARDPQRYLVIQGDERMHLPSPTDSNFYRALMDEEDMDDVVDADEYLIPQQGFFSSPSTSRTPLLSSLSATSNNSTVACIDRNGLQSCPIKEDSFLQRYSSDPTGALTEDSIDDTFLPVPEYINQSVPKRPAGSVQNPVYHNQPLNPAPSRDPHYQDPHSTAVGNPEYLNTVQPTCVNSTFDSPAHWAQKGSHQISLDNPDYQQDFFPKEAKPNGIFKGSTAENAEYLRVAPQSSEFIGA
Sequence of EGFR (d746-750 T790M C797S) (P00533 other isoform, or with tags, fused parts or gaps T790M/C797S/del 1-694/del 746-750 limits assumed): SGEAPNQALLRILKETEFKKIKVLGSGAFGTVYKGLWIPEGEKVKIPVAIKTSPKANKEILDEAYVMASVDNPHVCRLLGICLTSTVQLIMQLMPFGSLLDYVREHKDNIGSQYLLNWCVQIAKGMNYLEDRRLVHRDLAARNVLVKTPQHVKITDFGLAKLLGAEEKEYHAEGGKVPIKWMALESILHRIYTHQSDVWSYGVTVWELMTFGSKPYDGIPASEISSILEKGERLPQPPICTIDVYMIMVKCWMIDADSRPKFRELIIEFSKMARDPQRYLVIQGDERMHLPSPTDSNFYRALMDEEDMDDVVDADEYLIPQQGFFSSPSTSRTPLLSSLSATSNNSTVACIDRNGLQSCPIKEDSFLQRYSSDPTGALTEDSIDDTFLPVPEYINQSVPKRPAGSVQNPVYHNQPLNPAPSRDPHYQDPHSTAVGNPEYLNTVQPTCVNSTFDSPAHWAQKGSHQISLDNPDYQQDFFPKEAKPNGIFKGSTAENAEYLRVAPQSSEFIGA

Row | Structure (SMILES) | IC50 ([1]; 100 μM ATP) [nM] | IC50 [2, 5] [nM] | IC50 [3, 6] [nM] | IC50 [4] [nM] | IC50 ([1]; 5 μM ATP) [nM] | IC50 [2, 7] [nM] | IC50 [3, 8] [nM]
1 | CC(C)(O)Cn1/c(=N/C(=O)c2ccnc(-c3cccnc3)c2)[nH]c2cc(C3CCCOC3)ccc21 (centres unmarked) [I-052] | 6.6 | 189 | > 100000 | 6 | – | – | –
2 | CC(C)(O)Cn1/c(=N/C(=O)c2ccnc(-n3cnc4ccccc43)c2)[nH]c2ccccc21 [I-039] | 36 | 508 | > 100000 | 9 | – | – | –
3 | CN1CCC(c2ccc3c(c2)[nH]/c(=N\C(=O)c2ccnc(-c4cnn(C)c4)c2)n3CC(C)(C)O)CC1 [I-021] | 4.9 | 27.7 | 876 | 4 | – | – | –
4 | Cn1cc(-c2cc(C(=O)/N=c3\[nH]c4ccccc4n3C3CCC3)ccn2)cn1 [I-019] | 26.3 | 102 | 4370 | 37 | – | – | –
5 | CC(=O)N1CCC(c2ccc3c(c2)[nH]/c(=N\C(=O)c2ccnc(-c4cnn(C)c4)c2)n3C2CCCC2)CC1 [I-008] | 5 | 39.6 | > 4000 | 6 | – | 1.5 | 185
6 | Cn1cc(-c2cc(C(=O)/N=c3\[nH]c4ccccc4n3C3CCCC3)ccn2)cn1 [I-003] | 9.9 | 61.7 | 4080 | 29 | – | – | –
7 | COc1ccncc1-c1cc(C(=O)/N=c2\[nH]c3cc(C4CCN(C(C)=O)CC4)ccc3n2CC(C)(C)O)ccn1 [I-031] | 1.2 | – | – | 1 | – | – | –
8 | Cn1cc(-c2cc(C(=O)/N=c3\[nH]c4ccccc4n3CC(C)(C)CO)ccn2)cn1 [I-038] | 15.8 | 234 | 40800 | 27 | – | – | –
9 | CN1CCC(c2ccc3c(c2)[nH]/c(=N\C(=O)c2ccnc(-n4cnc5cccc(F)c54)c2)n3CC(C)(C)O)CC1 [I-030] | 3.4 | 25.5 | 1960 | 6 | – | – | –
10 | Cn1cc(-c2cc(C(=O)/N=c3\[nH]c4ccccc4n3[C@H]3CC[C@H](O)C3)ccn2)cn1 [I-013] | 18.4 | 76.5 | 3770 | 13 | – | – | –
11 | Cc1ccc2c(c1)[nH]/c(=N\C(=O)c1ccnc(-c3cnn(C)c3)c1)n2CC(C)(C)O [I-033] | 8.6 | 91.6 | 9510 | 9 | – | – | –
12 | CC(C)(O)Cn1/c(=N/C(=O)c2ccnc(-c3cnn4ccccc34)c2)[nH]c2ccccc21 [I-023] | 7.7 | 78.2 | > 100000 | 7 | – | – | –
13 | CN1CCN(c2ccc3c(c2)[nH]/c(=N\C(=O)c2ccnc(-c4cnn(C)c4)c2)n3CC(C)(C)O)CC1 [I-022] | 61.8 | 169 | 5620 | 71 | – | – | –
14 | CN1CCC(c2ccc3c(c2)[nH]/c(=N\C(=O)c2ccnc(-c4cnn(C)c4)c2)n3CC(C)(C)O)CC1=O (centres unmarked) [I-035] | 5.6 | 79.3 | 6670 | 79 | – | – | –
15 | Cn1cc(-c2cc(C(=O)/N=c3\[nH]c4ccccc4n3[C@H]3CC[C@H](O)CC3)ccn2)cn1 [I-036] | 4 | 40.1 | 1250 | 3 | – | 1.6 | 407
16 | Cn1cc(-c2cc(C(=O)/N=c3\[nH]c4ccccc4n3CCC(C)(C)O)ccn2)cn1 [I-037] | 14.2 | 171 | > 100000 | 15 | – | – | –
17 | Cn1cc(-c2cc(C(=O)/N=c3\[nH]c4ccccc4n3[C@H]3CC[C@@H](O)CC3)cc(C#N)n2)cn1 [I-136] | – | 31.6 | > 100000 | 2 | 0.2 | 0.8 | 164
18 | Cc1cc(C(=O)/N=c2\[nH]c3ccccc3n2[C@H]2CC[C@@H](O)CC2)cc(-c2cnn(C)c2)n1 [I-143] | – | 104 | > 100000 | 3 | 0.4 | 1.9 | 2180
19 | O=C(/N=c1\[nH]c2ccccc2n1[C@H]1CC[C@@H](O)CC1)c1ccnc(-c2ccccc2OC(F)F)c1 [I-163] | – | – | – | 7 | – | 10.4 | 110
20 | Cc1cc(C(=O)/N=c2\[nH]c3cc(CN4CCN(C)CC4)ccc3n2[C@H]2CCC[C@H](O)C2)cc(-c2cnn(C)c2)n1 [I-208] | – | – | – | 44 | – | 5.4 | 7470
21 | COc1ccccc1-c1cc(C(=O)/N=c2\[nH]c3cc(CN4CCOCC4)ccc3n2CC(C)(C)O)ccn1 [I-060] | – | – | – | 1 | – | 0.7 | 65.6
22 | Cc1cc(C(=O)/N=c2\[nH]c3ccccc3n2[C@H]2CCC[C@H](O)C2)cc(-c2cnn(C)c2)n1 [I-204] | – | – | – | 6 | – | 26.2 | 9290
23 | O=C(/N=c1\[nH]c2ccccc2n1[C@H]1CC[C@@H](O)CC1)c1ccnc(-c2coc3cccnc23)c1 [I-156] | – | – | – | 5 | – | 13.3 | 3150
24 | Cn1cc(-c2cc(C(=O)/N=c3\[nH]c4ccccc4n3CC(C)(C)O)ccn2)cn1 [I-001] | 71.7 | – | – | 43 | – | – | –
25 | Cn1cc(-c2cc(C(=O)/N=c3\[nH]c4ccccc4n3[C@H]3CC[C@@H](O)CC3)cc(Cl)n2)cn1 [I-146] | – | – | – | 5 | – | 2.8 | 1540

Continued, values first:

Row | IC50 ([1]; 100 μM ATP) [nM] | IC50 [2, 5] [nM] | IC50 [3, 6] [nM] | IC50 [4] [nM] | IC50 ([1]; 5 μM ATP) [nM] | IC50 [2, 7] [nM] | IC50 [3, 8] [nM] | Structure (SMILES)
26 | 2.4 | 4.2 | 591 | 1 | – | – | – | COc1ccncc1-c1cc(C(=O)/N=c2\[nH]c3cc(C4CCN(C)CC4)ccc3n2CC(C)(C)O)ccn1 [I-028]
27 | – | – | – | 3 | 0.2 | 0.5 | 267 | Cc1cc(C(=O)/N=c2\[nH]c3ccc(CN4CCN(C)CC4)cc3n2C2CCCCC2)cc(-c2cnn(C)c2)n1 [I-224]
28 | 49 | 184 | 12400 | 30 | – | – | – | Cn1cc(-c2cc(C(=O)/N=c3\[nH]c4ccccc4n3[C@H]3CC[C@@H](O)C3)ccn2)cn1 [I-009]
29 | 14.2 | 111 | 9960 | 7 | – | 3.9 | 1880 | Cc1c(-c2cc(C(=O)/N=c3\[nH]c4ccccc4n3CC(C)(C)O)ccn2)cnn1C [I-017]
30 | 2.5 | 27.7 | 7060 | 77 | – | – | – | CN1CCC(c2ccc3c(c2)[nH]/c(=N\C(=O)c2ccnc(-c4cccnc4)c2)n3C2CCCC2)CC1 [I-011]
31 | 14.2 | 105 | 236 | 11 | – | – | – | Cc1nn(C)cc1-c1cc(C(=O)/N=c2\[nH]c3ccccc3n2C2CCCC2)ccn1 [I-005]
32 | 10.5 | 64.6 | > 100000 | 25 | – | 1.9 | 403 | CC(C)Cn1/c(=N/C(=O)c2ccnc(-c3cnn(C)c3)c2)[nH]c2ccccc21 [I-012]
33 | 4.6 | 67.4 | 2510 | 9 | – | – | – | O=C(/N=c1\[nH]c2ccccc2n1C1CCCC1)c1ccnc(-c2cccnc2)c1 [I-002]
34 | 2.9 | 17.4 | 5110 | 20 | – | – | – | CN1CCC(c2ccc3c(c2)[nH]/c(=N\C(=O)c2ccnc(-c4cnn(C)c4)c2)n3C2CCCC2)CC1 [I-010]
35 | 7.3 | 86.9 | 26300 | 10 | – | – | – | COC(=O)Cc1ccc2c(c1)[nH]/c(=N\C(=O)c1ccnc(-c3cnn(C)c3)c1)n2CC(C)(C)O [I-055]
36 | – | – | – | 3 | – | 1.7 | 397 | Cn1cc(-c2cc(C(=O)/N=c3\[nH]c4cc(CN5CCOCC5)ccc4n3[C@H]3CC[C@@H](O)CC3)cc(C#N)n2)cn1 [I-145]
37 | – | – | – | 44 | – | 7.4 | 1660 | Cn1cc(-c2cc(C(=O)/N=c3\[nH]c4ccccc4n3[C@H]3COC[C@@H](O)C3)ccn2)cn1 [I-191]
38 | – | – | – | 2 | – | 2 | 312 | O=C(/N=c1\[nH]c2ccccc2n1[C@H]1CC[C@@H](O)CC1)c1ccnc(-c2ccccc2F)c1 [I-141]
39 | – | – | – | 37 | – | 17.7 | 12900 | Cc1cc(C(=O)/N=c2\[nH]c3ccccc3n2[C@@H]2C[C@H](O)C[C@H](O)C2)cc(-c2cnn(C)c2)n1 [I-206]
40 | – | 3.7 | 4420 | 1 | – | – | – | Cc1ccc2c(c1)[nH]/c(=N\C(=O)c1ccnc(-c3cnn4cccnc34)c1)n2[C@H]1CC[C@@H](O)CC1 [I-110]
41 | – | – | – | 5 | – | 3 | 1400 | COc1ccncc1-c1cc(C(=O)/N=c2\[nH]c3cc(CN4CCOCC4)ccc3n2[C@H]2CC[C@@H](O)CC2)cc(C#N)n1 [I-196]
42 | – | 10.3 | 1800 | 2 | – | 0.7 | – | COc1ccccc1-c1cc(C(=O)/N=c2\[nH]c3ccccc3n2CC(C)(C)O)ccn1 [I-105]
